# Earlier results in patent US20120231150A1, “Digestive Enzyme Inhibitor and Methods of Use” (TATE & LYLE INGREDIENTS AMERICAS, LLC, priority 2011, published 2012).
# Test system: postprandial blood glucose
# Conditions: use to control blood sugar levels
smiles,measurement,value
C[C@H]1O[C@H](O[C@H]2[C@H](O)[C@@H](O)[C@@H](O[C@H]3[C@H](O)[C@@H](O)C(O)O[C@@H]3CO)O[C@@H]2CO)[C@H](O)[C@@H](O)[C@@H]1N[C@H]1C=C(CO)[C@@H](O)[C@H](O)[C@H]1O (stereo partly shown) [Acarbose],side effects,"undesirable side effects such as gas, bloating, diarrhea"
